Target: T1, RNF25 (Homo sapiens, UniProt Q96BH1)
T1 construct: His-RNF25 used in ubiquitination assay
T1 sequence (Q96BH1 1-459): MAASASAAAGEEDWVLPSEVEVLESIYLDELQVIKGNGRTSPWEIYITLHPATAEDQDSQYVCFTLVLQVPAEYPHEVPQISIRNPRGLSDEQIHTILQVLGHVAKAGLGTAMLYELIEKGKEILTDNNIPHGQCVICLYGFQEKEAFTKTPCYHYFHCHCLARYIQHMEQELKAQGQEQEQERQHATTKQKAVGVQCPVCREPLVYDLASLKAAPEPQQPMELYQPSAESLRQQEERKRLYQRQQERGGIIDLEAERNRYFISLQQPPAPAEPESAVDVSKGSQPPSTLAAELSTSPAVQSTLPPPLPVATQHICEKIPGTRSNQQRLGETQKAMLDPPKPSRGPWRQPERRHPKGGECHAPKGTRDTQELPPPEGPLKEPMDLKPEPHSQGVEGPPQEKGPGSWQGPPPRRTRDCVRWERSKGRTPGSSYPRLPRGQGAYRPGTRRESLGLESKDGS
Experiment: isothermal titration calorimetry
Format: binding

SMILES: Cc1ccc(S(=O)(=O)/C=C/C#N)cc1 [BAY11-7082]
- Kd: 0.95 µM
